# Source: PMC10797614, “MYC-Targeting Inhibitors Generated from a Stereodiversified Bicyclic Peptide Library” (Journal of the American Chemical Society, 2024)
# *1 amine or outer side, *2 acyl side, *3 side chain or, on linkers, in order; H or OH if unused. Where a SMILES comes first, the peptide text is derived from it. Bridges are numbered along the chain shown (N, C = ends). X1 = O=C([C@@H]1C[C@H](C=CCO[*:3])C[C@@H]1C=CCO[*:1])[*:2]
# Assays:
# MYC = molecular target: T1, MYC (Homo sapiens, UniProt P01106); assay: Temperature-dependent circular dichroism spectroscopy; format: binding; conditions: NT-B2R 100 μM, MYC 0.1 mg/mL, 0.1 M phosphate buffer pH 7.4, 30 °C to 60 °C
# T1 construct: made in house; host or cells: E. coli BL21(DE3)
# Excerpt: To further study the nature of the interaction between NT-B2R and MYC, we leveraged temperature-dependent circular dichroism (CD) spectroscopy. Here, if no conformation change was involved, the CD spectra of the MYC/NT-B2R mixture would be the addition of each component’s spectra (Figure 3J, calculated). However, we observed drastically different CD spectra (Figure 3J, measured and difference).
# Protein thermal shift assay with GlomeltTM
# Follow the Biotium’s protocol PI-3302133022. The reactions were set up in qPCR tubes, for each tube 1 μg recombinant MYC protein (1 μg/μL, 1 μL), GlomeltTM dye (10x, 2 μL), peptide ligand (2x, 10 uL, final concentration 500 μM), PBS (1x, 7 uL) to make a total volume of 20 μL with triplicate. For control group, PBS (1x, 17 μL) was used without peptide ligand. […] The resulting curve was fitted with a Boltzmann curve within the range of 45-60 °C and Tm was calculated from the fitted curve. […]
# NT-B2R peptide and MYC protein were diluted to the final working concentrations of 100 μM and 0.1 mg/mL respectively. […] Spectra in the 180-280 nm range were recorded in a 1 mm path length cell.
# The collected CD spectra were processed in OriginProTM. […] Spectra addition and subtraction were performed before the matrix conversion to generate the calculated and difference […]
# U87 cells = assay: Cell viability test (resazurin), U87; format: cell-based, human; conditions: peptide-loaded DOTAP/DOPE liposomes vs empty liposomes, 48 hours, resazurin fluorescence
# Protocol: Liposome loading capacity quantification
# 200 μL of the liposome solution (4 mg/mL) was dried under vacuum and extracted with 50 μL of DMSO. The obtained solution was analyzed on a reverse-phase HPLC and the corresponding peptide peak was identified by mass spectrometry. The peptide concentration was then determined by comparing the peak area to that of a standard solution. The loading capacities were calculated accordingly.
# Cells were seeded in a 96-well plate at 4 k/well and incubated overnight. Afterward, the cells were washed with complete media and treated with varying concentrations of peptide-loaded liposome or empty liposome. The final media volume was 200 μL in each well. The cells were treated for 48 hours and then washed with fresh media to remove residue peptides or liposomes. For a single well, Resazurin (10 μg/mL in PBS) mixed with 200 μL of fresh cell media was added, and the plate was incubated at 37 °C for 3 hours. The 96-well plate was shaken for 15 min on an orbital mixer in dark, and the fluorescence (540 nm excitation, 590 nm emission) intensities were read by a […]
# U87 cells were detached by trypsin and resuspended in 5 mL of PBS(1x). […] The protein concentrations were determined by BCA assay.
# To prepare the sample for the cellular thermal shift assay, the quantified cell lysate was adjusted to a final concentration of 1.481 mg/mL with lysis buffer. […]
# [1] = tested on: MYC and phosphor-MYC (p-MYC, T58); assay: Western blot of MYC and phosphor-MYC levels in treated U87 cells; format: cell-based, human; conditions: liposome-delivered peptide
# Excerpt: We then evaluated the biological effects of NT-B2R in cells.
# T1 sequence (P01106 16-454): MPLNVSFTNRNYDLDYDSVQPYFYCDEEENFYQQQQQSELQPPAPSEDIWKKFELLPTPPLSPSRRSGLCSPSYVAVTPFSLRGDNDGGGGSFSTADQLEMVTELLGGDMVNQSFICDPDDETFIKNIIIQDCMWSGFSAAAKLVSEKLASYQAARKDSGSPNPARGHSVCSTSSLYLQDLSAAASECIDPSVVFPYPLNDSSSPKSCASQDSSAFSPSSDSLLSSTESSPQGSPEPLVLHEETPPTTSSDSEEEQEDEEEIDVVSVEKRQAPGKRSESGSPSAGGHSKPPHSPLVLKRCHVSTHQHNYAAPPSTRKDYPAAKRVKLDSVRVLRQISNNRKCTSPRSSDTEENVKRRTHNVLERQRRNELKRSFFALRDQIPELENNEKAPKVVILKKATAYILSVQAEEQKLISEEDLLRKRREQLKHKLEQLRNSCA
compound,measurement,setting,value
CC(C)C[C@@H]1NC(=O)[C@H](CCCNC(=N)N)NC(=O)[C@@H]2CCCCNC(=O)[C@@H]3C[C@H](C=CCOC(=O)CC[C@@H](C(N)=O)NC1=O)C[C@@H]3C=CCOC(=O)CC[C@H](N)C(=O)N[C@@H](Cc1c[nH]c3ccccc13)C(=O)N1CCC[C@H]1C(=O)N[C@@H](Cc1c[nH]cn1)C(=O)N[C@@H](CCCNC(=N)N)C(=O)N2 [NT-B2R] (H-EWPHRKRLE-NH2; linker 1-6-9 via X1; N-terminus and C-terminus assumed),CD spectra of MYC/peptide mixture versus calculated sum (in words),MYC,significant changes in the conformation landscape
same,"metabolic activity and proliferation (viability), U87",U87 cells,decreased metabolic activity and proliferation
same,expression and phosphorylation levels of MYC (Western blot),[1],did not alter
